Bridge positions count the residues as written; N and C are the ends. Square brackets hold non-standard residues; d marks the D form. Peptide text beside a SMILES is read from it.

The test system of series [1] is preformed biofilm of A. baumannii ATCC 19606. Particulars: ATCC 19606, 20 h. Here is the method:
(§1) Biofilm viability was determined as indicated in the Materials and General Procedures section and expressed as a percentage compared to that of untreated samples (100%). Values are the mean of at least three replicates ± SEM. Data are considered to be statistically significant as follows: *p < 0.05; ***p < 0.001; ****p < 0.0001. Biofilm eradication concentration 90, BEC90, was defined as the concentration able to reduce at least 90% of biofilm cells. TEXT PRINTED IN THE PICTURE: 9: S. aureus ATCC 25923: BEC90 = 25 μM; A. baumannii ATCC 19606: BEC90 > 100 μM | 12: S. aureus ATCC 25923: BEC90 = 12.5 μM; A. baumannii ATCC 19606: BEC90 = 25 μM
(§2) Preformed biofilms of S. aureus ATCC 25923 and A. baumannii ATCC 19606 were obtained as previously reported.[77] Microbial cultures were grown in Luria-Bertani broth (LB) at 37 °C to an optical density (OD) of 0.8 (λ = 590 nm) and then diluted in LB to a cell density of 1 × 10^6 colony-forming units (CFUs)/mL. Aliquots of 100 μL were dispensed into the wells of a 96-well plate, which was incubated for 20 h at 37 °C to allow biofilm formation. The medium containing planktonic cells was then aspirated from the wells and washed twice with 150 μL of phosphate-buffered saline (PBS) to remove any nonadherent cells. […] After treatment, each well was rinsed twice with PBS, as previously described. Then, 150 μL of MTT solution (0.5 mg/mL) were added to each well to evaluate biofilm cell viability. The plates were incubated at 37 °C for 4 h in the dark, and the reaction was stopped by adding sodium dodecyl sulfate (SDS) (at a final concentration of 5% v/v). The absorbance of each well was recorded at 570 nm using a microplate reader (Infinite M200; Tecan, Salzburg, Austria), and the percentage of biofilm cells viability was calculated with respect to the untreated samples (100%).

Series [2] concerns preformed biofilm of S. aureus ATCC 25923. As for the experimental part: as §1, §2
For series [3] the following is noted: 90% fresh human serum (male AB plasma), 37 ± 1 °C, peptide 0.2 mM, MeCN precipitation, RP-UHPLC peak area at 220 nm, triplicate.
Method: Peptides were incubated with 90% fresh human serum at 37 ± 1 °C within 12 h.[69] The percentage of intact peptide was monitored by calculating the peak area of the chromatogram from RP-HPLC analysis.
The peptide was incubated in a 1.5 mL eppendorf tube with human serum at a final concentration of 0.2 mM, and the mixture was incubated at 37 ± 1 °C for different periods (0.25, 0.75, 1.5, 2, 3, 4, 6, 7, 8, and 12 h). After the incubation period, an aliquot of reaction solution was taken and added MeCN (double volume respect to the aliquot) for the precipitation of serum proteins present in human serum. The produced cloudy solution was cooled (4 °C) for 15 min and then centrifuged at 13 000 rpm for 10 min to remove the serum protein as pellet. Then, the supernatant was analyzed by RP-UHPLC using a linear elution gradient from 10 to 90% MeCN (0.1% TFA) in water (0.1% TFA) over 20 min. A flow rate of 1 mL/min was employed, and the absorbance of the eluting peaks was detected at 220 nm. The proteolytic stability assay was repeated in triplicate.
The next series can be described thus: ANTS/DPX leakage assay. As to conditions: peptide 5–50 μM, 10 min. As for the experimental part: The destabilization of membrane vesicles by 12 was explored measuring its effect on the release of encapsulated fluorophores in both LUVs mimicking Gram-positive and Gram-negative membranes. ANTS and DPX fluorophores were encapsulated in LUVs, and ANTS release was measured to evaluate the transient pore formation.
The dry lipid films (Cf = 100 μM) were dissolved with a solution of ANTs (12.5 mM) and DPX (45 mM) in water (2 mL) and then lyophilized overnight. The lipid films with encapsulated ANTS and DPX were hydrated with PBS 1× buffer and treated to obtain LUVs using the extrusion method.[81] Then, nonencapsulated ANTs and DPX were separated from liposomes by gel filtration using a Sephadex G-50 column (1.5 cm × 10 cm) at room temperature. Initially, liposomes contain both ANTs and DPX, and DPX efficiently quenches ANT fluorescence by collisional transfer.[82] When LUVs were treated with peptide concentrations of 5, 10, 15, 20, 30, and 50 μM, we measured the leakage of vesicles by measuring the dequenching of ANTS released into the medium. Changes in the fluorescence of 2 mL of ANTS/DPX LUV samples were monitored setting an excitation fluorescence at 385 nm (slit width, 5 nm) and a fluorescence emission at 512 nm (slit width, 5 nm) for 10 min after the addition of the peptide. […]

Series [4] can be described thus: Membrane fluidity, Laurdan GP value. Particulars: lipid 100 μM, Laurdan 1 μM, PBS pH 7.4, 25 °C, 10 min; for GPlaurdan DOPG/DOPE/CL + cmpd: LUVs alone –0.14; for GPlaurdan DOPG/CL + cmpd: LUVs alone –0.32. Here is the method:
A membrane fluidity study was performed using Laurdan, a probe with the capacity to insert into membranes and to distribute between liquid phases,[66] changing its emission spectrum.[67] In particular, the maximum emission wavelength of Laurdan is 490 nm when phospholipids are in a disordered phase and it shifts to 440 nm when lipids are in a more packed phase. The generalized polarization (GP) parameter was used to measure quantitatively the emission shift of the Laurdan probe.[68] […] LUVs fluidity was evaluated before and after the addition of 12 and 9 at 25 °C. Before the addition of both peptides, emission of LUVs, mimicking both Gram-positive and Gram-negative membranes, indicated the presence of a disordered phase with a maximum at 490 nm (Table 3). […] In fact, GP parameter indicated the presence of a disordered phase for both Gram-positive and Gram-negative liposomes (Table 3).
Laurdan is extensively used as a fluorescent probe in membrane fluidity study.[79] Laurdan emission spectra encapsulated in large unilamellar vesicles (LUVs) are centered at 490 nm when the lipids are in a disordered phase and the emission shifts to 440 nm when the lipids are in a more packed phase. The preparation of LUVs was performed using the extrusion method.[79] To mimic the lipid composition of Gram-positive and Gram-negative membranes, we used LUVs made of DOPG/CL (58/42 ratio in moles) and DOPG/DOPE/CL (63/23/12 ratio in moles), respectively. First, stock solutions of lipids in chloroform were prepared and the assay was performed using a final lipid concentration of 100 μM. Laurdan (1 μM) was added to chloroform/lipids solution before the evaporation of organic solvent. The mixture of lipids and probe was dried under nitrogen gas stream and freeze-dried overnight. Then, lipid film with Laurdan was hydrated with PBS 1× buffer, pH = 7.4, vortexed for 1 h, and freeze-thawed six times and extruded 10 times through polycarbonate membranes with 0.1 μm diameter pores, obtaining LUVs with encapsulated Laurdan. Stock solutions of 2 mM of linear peptide 9 and lactam-bridged analogue 12 were prepared by dissolving peptides in water. The influence of peptides on membrane fluidity was evaluated at 5 and 30 μM. The peptide was added to LUVs + Laurdan probe, and after 10 min, the fluorescence spectra were recorded using a 1 cm path length quartz cell, thermostated at 25 °C. To measure the Laurdan emission shift and to quantify the variation of membrane fluidity, we calculated the generalized polarization (GP) as GP = (I440 – I490)/(I440 + I490).

Regarding `CC[C@H](C)[C@H](NC(=O)[C@H](CCCNC(=N)N)NC(=O)[C@@H]1CCC(=O)NCCCC[C@H](NC(=O)[C@H](Cc2ccccc2)NC(=O)[C@H](Cc2c[nH]c3ccccc23)NC(=O)[C@@H]2CCCN2C(=O)[C@@H](NC(=O)[C@@H](N)Cc2ccccc2)C(C)C)C(=O)N[C@@H](CCCCN)C(=O)N[C@@H](Cc2ccccc2)C(=O)N[C@H](CC(C)C)C(=O)N1)C(=O)N[C@@H](CC(C)C)C(N)=O` [compound 12] (H-FVPWFKKF[dL]ERIL-NH2; lactam 6-10), in series [1], the “Biofilm Eradication Concentration 90 (BEC90) A. baumannii ATCC 19606” value was 25 µM. For the same compound, in series [2] (2 h treatment, from 100 to 12.5 μM, with respect to untreated samples), the “reduction of viable S. aureus biofilm cells” value was “more than 90%”. In addition, in series [2] (preformed 20 h biofilm, 2 h treatment in PBS at 37 °C, MTT, concentration reducing at least 90% of biofilm cells), the “Biofilm Eradication Concentration 90 (BEC90) S. aureus ATCC 25923” value was determined as 12.5 µM. Further, the “time to complete degradation in human serum” value in series [3] is recorded as 12 h. For the same compound, the results for the “leakage of LUVs (ANTS release)” value in the series “ANTS/DPX leakage assay” (LUVs mimicking Gram-negative membranes) and in the series “ANTS/DPX leakage assay” (LUVs mimicking Gram-positive membranes) were “significant leakage ability” and “low leakage effect”, respectively. Besides, the “GPlaurdan DOPG/DOPE/CL + cmpd” value in series [4] (peptide 5 μM) is reported as “–0.07”; in series [4] (peptide 30 μM) it was 0.1. Also, the “GPlaurdan DOPG/CL + cmpd” value in series [4] (peptide 5 μM) is given as “–0.23”; in series [4] (peptide 30 μM) it was 0.04.

The values are drawn from publication PMC8389922, “First-in-Class Cyclic Temporin L Analogue: Design, Synthesis, and Antimicrobial Assessment” (Journal of Medicinal Chemistry, 2021).
